Patent US20090232831A1, “METHODS AND COMPOSITIONS FOR THE TREATMENT OR PREVENTION OF HUMAN IMMUNODEFICIENCY VIRUS INFECTION” (priority 2008, published 2009)

What was measured:
[1] = target: 2G12 complex; test: KD,surf of 2G12 complex on glycan-printed normal-NHS-density slide; type: binding; settings: immobilized on normal-NHS-density slide; saturated value
Procedure: To further test its multivalent efficacy, 17 was immobilized onto a normal-NHS-density slide (FIG. 3d) at varying printing concentrations.
Second generation Man9 dendron 17 on normal NHS density slide: Similar procedure as for normal density Man4 slide was used. Derivative of 17 with a linker connecting free amine was used for printing. The printing concentrations are 100, 80, 60, 40, 20, 10, 8, 6, 4, 2, 1, 0.8, 0.6, 0.4, 0.2, 0.1, 0.08, 0.06, 0.04, and 0.02 μM. The KD,surf of 2G12 complex was obtained (see Table 4) as previously described.
Determination of KD,surf of glycodendron 17. The procedure is the same as that disclosed in Liang et al., “Quantitative analysis of carbohydrate-protein interactions using glycan microarrays: determination of surface and solution dissociation constants.” J Am Chem Soc 129:11177-11184 (2007), which is hereby incorporated by reference as if fully disclosed herein.

[2] = target: T1, gp120/DC-SIGN-Fc (Homo sapiens, UniProt Q9NNX6); test: gp120/Fc-DC-SIGN competition ELISA; type: binding
T1 construct: fused on or other part: Human IgG Fc fused on as a dimerising and detection handle (detected with anti-human IgG, Fc-gamma-specific antibody)
T1 sequence (Q9NNX6 250-404 limits assumed): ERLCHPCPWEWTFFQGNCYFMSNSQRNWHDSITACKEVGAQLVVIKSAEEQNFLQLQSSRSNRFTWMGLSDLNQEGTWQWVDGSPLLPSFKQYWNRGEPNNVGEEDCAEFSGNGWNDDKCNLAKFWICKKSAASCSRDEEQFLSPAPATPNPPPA
Procedure: It was then determined whether oligomannose dendrons are able to interfere with the binding between gp120 and DC-SIGN, which is likely to be a key step for dendritic cell-mediated CD4 T cell HIV infection. Gp120/Fc-DC-SIGN ELISA was performed, in a similar setting as gp120/2G12 ELISA, to evaluate the inhibition activity of glycodendrons 14 and 17.
Competition ELISA for Fc-DC-SIGN. DC-SIGN competitions were done with 1.5 μg/ml Fc-DC-SIGN as described above with a few modifications since DC-SIGN is a C-type lectin that requires Ca^2+ for binding. A Tris (10 mM, pH7.8) buffer containing NaCl (150 mM), i.e., TBS, replaced PBS in the abovementioned buffers used for coating, blocking and washing. After the initial wash step, CaCl2 (10 mM) was included in the blocking solution and all subsequent incubation and wash buffers until substrate addition. DC-SIGN-Fc binding was detected with an alkaline phosphatase-conjugated goat anti-human IgG, Fcγ-specific, Ab (Jackson ImmunoResearch Laboratories, Inc.) diluted 1:1000.

Compound | Kd [1] [mM] | IC50 [2] [mM] | inhibition activity range ([2]; gp120/Fc-DC-SIGN ELISA)
Man9 [Compound 2] | 0.00083 | – | –
O=C[C@@H](O)[C@@H](O)[C@H](O)[C@H](O)CO [D-Mannose, reference compound] | – | 8.5 | millimolar range
